Reference: US20260085047A1, “TRIPHENYLAZOLE COMPOUND” (SHIRATORI PHARMACEUTICAL CO., LTD., priority 2022, published 2026)

Tests used:
[1] = tested on: ICR mice, focal cerebral ischemia (tMCAO); experiment: Cerebral neuroprotection in focal cerebral ischemia model (tMCAO); type: in vivo, mouse; details: tMCAO 2 hours, 0.3 mg/kg orally after reperfusion
Protocol: Male ICR mice (5 weeks old, 25-30 g) were purchased from Japan SLC, Inc. (Shizuoka, Japan). The animals were reared under constant temperature and humidity conditions, in a 12-hour light/dark cycle (light on: 09:00-21:00), and fed ad libitum. All mice were anesthetized with a combination of 0.3 mg/kg medetomidine, 4.0 mg/kg midazolam, and 5.0 mg/kg butorphanol. A silicone-coated 6-0 suture (Doccol Corporation, USA) was inserted from the right external carotid artery into the internal carotid artery up to the origin of the middle cerebral artery, and left in place for 2 hours, then the suture was removed and reperfusion was performed to prepare a mouse model of focal cerebral ischemia (tMCAO). Mice in the sham surgery group underwent the same treatment except for the insertion of the suture. […] Regional cerebral blood flow (rCBF) was monitored by Laser-Doppler flowmetry (FLOC1, OMEGAWAVE, Tokyo, Japan) to confirm whether the right hemisphere was ischemic or not. […] Infarct volume was measured using ImageJ software and expressed as a percentage of the total hemisphere (corresponding to B in FIG. 19, E in FIG. 21, and H in FIG. 23. The vertical axis Neurological score in C of FIG. 19, F of FIG. 21, and I of FIG. 23 represents the neurological deficit. The vertical axis Survival rate (%) in FIG. 24 corresponds to the mouse survival rate). […]

[2] = tested on: MPTP-treated C57BL6 N mice (PD model animals); experiment: Passive avoidance task in PD model animals (MPTP); type: in vivo, mouse; details: 0.05, 0.1 and 0.3 mg/kg p.o. once daily for two weeks from Day 20, Day 34, FIG. 2
[3] = molecular target: T1, GST-FABP7 (Homo sapiens, UniProt O15540, K110R); experiment: Evaluation of FABP ligand affinity using ANS (GST-FABP7); type: binding, mouse; details: ANS fluorescence displacement; mean±SE of three measurements; read-out: Kd value of FABP for each ligand, GST-FABP7
T1 construct: made in house; host or cells: E. coli BL21 (DE3)
T1 sequence (O15540 1-132 K110R): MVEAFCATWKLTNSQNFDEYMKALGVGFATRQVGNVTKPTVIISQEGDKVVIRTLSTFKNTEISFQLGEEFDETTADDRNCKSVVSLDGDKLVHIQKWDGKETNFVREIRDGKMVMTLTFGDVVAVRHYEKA
Protocol: (§1) GST-FABP3, GST-FABP4, GST-FABP5, and GST-FABP7 were each expressed in E. coli [BL21 (DE3) strain], and then affinity purification was performed using a glutathione column.
(§2) Cloning of GST-FABP3, GST-FABP4, GST-FABP5 and GST-FABP7 vectors was performed by the following method. After reverse transcription of mRNA isolated from mouse heart into cDNA, the FABP3 gene (RefSeqID: NM_010174.1) and FABP4 gene (RefSeqID: NM_024406.2) were each amplified by PCR. These cDNAs were each inserted between the BamHI/EcoRI cleavage sites of a pGEX-2T vector (GE HealthCare Japan, Tokyo) using a DNA ligation kit (Takara Bio, Kusatsu) and an In-fusion kit (Takara Bio USA, CA, USA) to prepare vectors.
(§3) Purification of GST-binding proteins was performed using a GST purification kit (Takara Bio USA). After the E. coli were collected by centrifugation, the provided extraction buffer and aluminum oxide powder were added, and the mixture was crushed in a mortar. The centrifuged supernatant was added to the provided glutathione column and allowed to stand on ice for 30 minutes. The supernatant in the column was then discarded, and washing was performed with extraction buffer, followed by elution with elution buffer containing glutathione. The protein concentration of the elution product was calculated from the absorbance at 280 nm and then used for the ANS assay. 1-anilinonaphthalene-8-sulfonic acid (ANS, final concentration: […], in a solution of 10 mM KH2PO4 and 40 mM KCl at pH 7.4), which binds to FABP proteins and emits fluorescence, and FABP proteins (final concentration: […]), as well as various ligands at concentrations of 0 nM, 100 nM, 1,000 nM, 2,000 nM, and 4,000 nM (final) were incubated for 2 min, and then the fluorescence of ANS was measured (Ex/Em=355 nm/460 nm). The fluorescence intensity at each ligand concentration was converted to a relative value (%) to the ANS fluorescence intensity in the absence of ligand, and then the dissociation constant Kd (nM) was calculated by […] using the following equation.
(§4) The Kd values in the above table are indicated as the mean±SE of three measurements. […] Example Compounds 1 to 5 in the table may also be referred to as Compounds 1 to 5, respectively.

[4] = molecular target: T2, GST-FABP5; experiment: Evaluation of FABP ligand affinity using ANS (GST-FABP5); type: binding, mouse; details: ANS fluorescence displacement; mean±SE of three measurements; read-out: Kd value of FABP for each ligand, GST-FABP5
T2 construct: made in house; host or cells: E. coli BL21 (DE3)
T2 sequence (Q01469 whole entry): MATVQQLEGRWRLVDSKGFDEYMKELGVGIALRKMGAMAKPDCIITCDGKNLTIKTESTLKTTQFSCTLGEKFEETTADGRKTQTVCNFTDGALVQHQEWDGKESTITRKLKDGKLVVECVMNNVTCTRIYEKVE
Protocol: as §1, §2, §3

[5] = tested on: phosphorylated α-synuclein; experiment: Phosphorylated α-synuclein staining in dopaminergic neurons of PD model animals; details: MPTP mice
From the text: (§5) The results for the substantia nigra region are shown in FIGS. 6, 7, 10, 11, 14, and 15, and for the ventrotegmental area in FIGS. 8, 9, 12, 13, 16, and 17 (the vertical axis Number of TH^+ cells in FIGS. 6 and 8 corresponds to the number of dopaminergic neurons. The vertical axis Number of double-positive cells/TH^+ positive cells (%) in FIGS. 11 and 13 corresponds to the percentage of dopaminergic neurons that contain phosphorylated α-synuclein. The vertical axis Triple-positive cells/TH-positive cells in FIGS. 15 and 17 corresponds to the percentage of dopaminergic neurons that contain both FABP3 and phosphorylated α-synuclein).

[6] = molecular target: T3, GST-FABP3; experiment: Evaluation of FABP ligand affinity using ANS (GST-FABP3); type: binding, mouse; details: ANS fluorescence displacement; mean±SE of three measurements; read-out: Kd value of FABP for each ligand, GST-FABP3
T3 construct: made in house; host or cells: E. coli BL21 (DE3)
T3 sequence (P05413 with tags, fused parts or gaps): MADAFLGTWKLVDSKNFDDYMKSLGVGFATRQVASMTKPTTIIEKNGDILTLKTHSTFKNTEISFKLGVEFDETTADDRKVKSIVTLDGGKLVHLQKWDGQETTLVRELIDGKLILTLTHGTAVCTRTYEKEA

[7] = tested on: FABP3 and phosphorylated α-synuclein; experiment: Double staining for phosphorylated α-synuclein and FABP3 in dopaminergic neurons of PD model animals; type: in vivo, mouse; details: MPTP mice
From the text: as §5

[8] = tested on: MPTP-treated C57BL6 N mice (PD model animals); experiment: Beam walking task in PD model animals (MPTP); type: in vivo, mouse; details: Example Compound 2 0.03, 0.1, 0.3 mg/kg or LIGAND 1 0.3 mg/kg, Day 34, FIG. 5
Protocol: In the beam walking task, the mice were placed on a thin board and allowed to walk, and the number of foot slips before reaching the goal box (corresponding to the vertical axis Number of foot slips in FIG. 5) was measured.

[9] = tested on: dopaminergic neurons (TH+ cells) in SNpc and VTA; experiment: Dopaminergic neuroprotection: TH-positive cells in brain sections of PD model animals; type: in vivo, mouse; details: MPTP mice; Example Compound 2 0.1, 0.3, 1.0 mg/kg or LIGAND 1 0.3 mg/kg; Day 34; FIGS. 6 to 9
From the text: as §5

[10] = molecular target: T4, GST-FABP4; experiment: Evaluation of FABP ligand affinity using ANS (GST-FABP4); type: binding, mouse; details: ANS fluorescence displacement; mean±SE of three measurements; read-out: Kd value of FABP for each ligand, GST-FABP4
T4 construct: made in house; host or cells: E. coli BL21 (DE3)
T4 sequence (P15090 whole entry): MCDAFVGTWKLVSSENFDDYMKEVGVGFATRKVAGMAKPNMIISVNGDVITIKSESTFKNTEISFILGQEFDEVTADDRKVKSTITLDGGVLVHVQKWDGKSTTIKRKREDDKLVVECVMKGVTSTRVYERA
Protocol: as §1, §2, §3, §4

[11] = tested on: MPTP-treated C57BL6 N mice (PD model animals); experiment: Novel object recognition task in PD model animals (MPTP); type: in vivo, mouse; details: 0.03, 0.1 and 0.3 mg/kg p.o. once daily for two weeks, Day 34, FIG. 3
Protocol: In the novel object recognition task, objects of the same shape were placed to be memorized by the mice in the training trial, and in the test trial, one of the objects was replaced with a novel object, and the rate of contact with both objects (corresponding to the vertical axis Discrimination index (%) in FIG. 3) was evaluated.

[12] = tested on: MPTP-treated C57BL6 N mice (PD model animals); experiment: Rotarod task in PD model animals (MPTP); type: in vivo, mouse; details: Example Compound 2 0.03, 0.1, 0.3 mg/kg or LIGAND 1 0.3 mg/kg, Day 34, 20 rpm, FIG. 4
[13] = tested on: dopaminergic neurons; details: reported in PTL 1 and NPL 6; cited from earlier work

Row | SMILES | Kd [3] [µM] | Kd [4] [µM] | Kd [6] [µM] | Beam walking task: number of foot slips, motor function [8] | Number of TH+ cells (dopaminergic neurons) in SNpc and VTA [9] | Kd [10] [µM] | Rotarod task: time until the mice fell (Latency), motor function [12] | also measured
1 | O=C(O)CCCOc1ccc(F)cc1-c1cc(-c2ccccc2C(F)(F)F)n(-c2ccccc2)n1 [Example Compound 1, 4-(4-fluoro-2-(1-phenyl-5-(2-(trifluoromethyl)phenyl)-1H-pyrazol-3-yl)phenoxy)butanoic acid] | ≥ 1000 | – | – | – | – | – | – | Mouse survival rate compared to Vehicle mice ([1]; FIG. 24): improved; Cerebral infarct volume compared to Vehicle mice ([1]; TTC staining): reduced; Passive avoidance task: time until entering the dark room (Latency) [2]: concentration-dependent prolongation of the waiting time
2 | O=C(O)CCCOc1ccccc1-c1cc(-c2ccccc2C(F)(F)F)n(-c2ccccc2)n1 [Example Compound 2, 4-(2-(1-phenyl-5-(2-(trifluoromethyl)phenyl)-1H-pyrazol-3-yl)phenoxy)butanoic acid] | 2.05 ± 0.0352 | 0.189 ± 0.0245 | 0.0117 ± 0.0188 | improvement in motor function was confirmed | suppresses the decrease in dopaminergic neurons | 0.104 ± 0.0363 | improvement in motor function was confirmed | Phosphorylation level of α-synuclein in dopaminergic neurons ([5]; 0.1, 0.3, 1.0 mg/kg, Day 34, SNpc and VTA, FIGS. 10 to 13): reduced; Protection of dopaminergic neurons from the toxicity of phosphorylated α-synuclein, substantia nigra (SNpc) ([5]; brain sections of SNpc, FIG. 11): protected dopaminergic neurons; Protection of dopaminergic neurons from the toxicity of phosphorylated α-synuclein, ventrotegmental area (VTA) ([5]; brain sections of VTA, FIG. 13): protected dopaminergic neurons; Localization of FABP3 and phosphorylated α-synuclein in dopaminergic neurons ([7]; 0.1, 0.3, 1.0 mg/kg, Day 34, SNpc and VTA, FIGS. 14 to 17): reduced; Interaction between phosphorylated α-synuclein and FABP3 in dopaminergic neurons, substantia nigra (SNpc) ([7]; brain sections of SNpc, FIG. 15): inhibited; Interaction between phosphorylated α-synuclein and FABP3 in dopaminergic neurons, ventrotegmental area (VTA) ([7]; brain sections of VTA, FIG. 17): inhibited; Novel object recognition task: rate of contact with novel and known objects (Discrimination index) [11]: trend of improvement in cognitive function
3 | O=C(O)CCCOc1ccccc1-c1nc(-c2ccccc2C(F)(F)F)n(-c2ccccc2)n1 [Example Compound 3, 4-(2-(1-phenyl-5-(2-(trifluoromethyl)phenyl)-1H-1,2,4-triazol-3-yl)phenoxy)butanoic acid] | ≥ 1000 | – | 0.16 ± 0.0341 | – | – | 0.369 ± 0.0441 | – | –
4 | CC(C)c1ccc(-n2nc(-c3cc(F)ccc3OCCCC(=O)O)cc2-c2ccccc2C(F)(F)F)cc1 [Example Compound 4, 4-(4-fluoro-2-(1-(4-isopropylphenyl)-5-(2-(trifluoromethyl)phenyl)-1H-pyrazol-3-yl)phenoxy)butanoic acid] | ≥ 1000 | 1.35 ± 0.204 | 0.113 ± 0.0031 | – | – | 2.18 ± 0.458 | – | –
5 | CC(C)c1ccc(-n2nc(-c3ccccc3OCCCC(=O)O)cc2-c2ccccc2C(F)(F)F)cc1 [Example Compound 5, 4-(2-(1-(4-isopropylphenyl)-5-(2-(trifluoromethyl)phenyl)-1H-pyrazol-3-yl)phenoxy)butanoic acid] | ≥ 1000 | 1.82 ± 0.392 | 0.0548 ± 0.0045 | – | – | 0.434 ± 0.0109 | – | –
6 | O=C(O)CCCOc1ccccc1-c1cc(-c2ccccc2Cl)n(-c2ccccc2)n1 [LIGAND 1, reference compound] | – | 0.324 ± 0.0452 | – | Improvement was also confirmed | no improvement was observed | 0.229 ± 0.0399 | No improvement was observed | Protection of dopaminergic neurons from cell death due to α-synuclein oligomerization [13]: protects dopaminergic neurons from cell death
